Like-named read-outs stand apart in the source and are kept apart here.
Tests used:
[1] = target: T1, N-terminally FLAG-tagged PARP2 (amino acids 1-583) (Homo sapiens, UniProt Q9UGN5); test: PARP2 probe displacement HTRF assay; format: binding; details: binned Kd
T1 construct: N-terminally FLAG-tagged PARP2 (amino acids 1-583)
Protocol: Data analysis was performed identical as for PARP1.

[2] = target: T2, full length N-terminally FLAG-tagged PARP1 (Homo sapiens, UniProt P09874); test: PARP1 probe displacement HTRF assay; details: for Selectivity: PARP1 over PARP2, ratio Kd (PARP2)/Kd (PARP1); for Kd: binned Kd
T2 sequence (P09874 whole entry): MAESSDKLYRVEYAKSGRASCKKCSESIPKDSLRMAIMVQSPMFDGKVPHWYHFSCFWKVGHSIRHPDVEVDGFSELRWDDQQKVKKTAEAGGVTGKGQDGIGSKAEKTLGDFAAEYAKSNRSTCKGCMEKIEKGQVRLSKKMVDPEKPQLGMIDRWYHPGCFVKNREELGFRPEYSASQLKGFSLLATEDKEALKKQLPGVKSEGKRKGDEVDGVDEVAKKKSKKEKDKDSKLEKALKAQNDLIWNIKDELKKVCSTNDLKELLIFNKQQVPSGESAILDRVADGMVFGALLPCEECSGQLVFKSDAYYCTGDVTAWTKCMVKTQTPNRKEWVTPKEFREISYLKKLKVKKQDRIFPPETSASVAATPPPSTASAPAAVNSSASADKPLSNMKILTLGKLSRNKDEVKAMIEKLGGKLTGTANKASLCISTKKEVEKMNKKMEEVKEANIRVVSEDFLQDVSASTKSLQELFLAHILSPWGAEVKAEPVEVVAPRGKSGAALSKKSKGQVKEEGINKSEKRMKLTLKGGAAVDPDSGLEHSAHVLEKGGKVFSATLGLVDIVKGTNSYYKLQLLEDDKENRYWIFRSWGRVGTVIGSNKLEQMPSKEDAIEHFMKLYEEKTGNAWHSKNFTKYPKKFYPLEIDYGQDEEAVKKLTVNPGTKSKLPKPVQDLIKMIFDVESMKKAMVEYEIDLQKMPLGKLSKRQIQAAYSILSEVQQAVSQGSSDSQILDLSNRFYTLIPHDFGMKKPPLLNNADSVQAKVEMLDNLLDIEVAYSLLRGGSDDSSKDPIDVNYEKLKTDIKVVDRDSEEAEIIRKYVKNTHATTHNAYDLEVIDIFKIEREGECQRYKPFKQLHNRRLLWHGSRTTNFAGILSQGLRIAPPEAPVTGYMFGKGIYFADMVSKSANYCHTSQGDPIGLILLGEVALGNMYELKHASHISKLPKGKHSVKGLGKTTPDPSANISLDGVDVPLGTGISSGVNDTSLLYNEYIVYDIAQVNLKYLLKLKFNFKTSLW

[3] = target: T2, full length N-terminally FLAG-tagged PARP1; test: PARP1 biochemical DELFIA assay (auto-PARylation); design: recombinant full length human N-terminally FLAG-tagged PARP1
[4] = read-out: PARP1 HTRF, PARP1 probe displacement HTRF
[5] = binned IC50, PARP1 biochemical DELFIA assay
[6] = PARP1 HTRF, probe displacement HTRF
[7] = binned IC50, biochemical auto-PARylation assay
[8] = read-out: PARP1 HTRF, probe displacement HTRF
[9] = PARP1 HTRF, PARP1 probe displacement HTRF

T1 sequence (Q9UGN5 whole entry, the tested form may be a part): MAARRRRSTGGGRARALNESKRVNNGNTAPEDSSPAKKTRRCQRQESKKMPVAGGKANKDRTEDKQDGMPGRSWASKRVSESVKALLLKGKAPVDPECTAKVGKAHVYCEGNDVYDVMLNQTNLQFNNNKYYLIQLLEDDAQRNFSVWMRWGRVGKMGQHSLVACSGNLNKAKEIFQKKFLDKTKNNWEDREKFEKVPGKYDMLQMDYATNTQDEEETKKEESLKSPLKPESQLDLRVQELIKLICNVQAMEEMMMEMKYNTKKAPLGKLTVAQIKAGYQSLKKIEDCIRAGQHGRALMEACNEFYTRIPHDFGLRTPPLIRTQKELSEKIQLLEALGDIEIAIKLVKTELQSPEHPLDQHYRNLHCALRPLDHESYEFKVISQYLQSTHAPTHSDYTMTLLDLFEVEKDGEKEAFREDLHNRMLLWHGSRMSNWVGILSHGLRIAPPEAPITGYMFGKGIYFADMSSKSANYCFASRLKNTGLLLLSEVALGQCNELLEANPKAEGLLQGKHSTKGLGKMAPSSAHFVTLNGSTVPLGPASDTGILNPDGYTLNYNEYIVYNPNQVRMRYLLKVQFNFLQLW

SMILES | Kd ([1]; PARP2 probe displacement HTRF) [µM] | Selectivity ([2]; probe displacement HTRF) | Kd [2, 4] [µM] | IC50 [3, 5] [µM] | Kd ([1]; probe displacement HTRF) [µM] | Kd [2, 6] [µM] | IC50 [3, 7] [µM] | Kd [2, 8] [µM] | Kd [2, 9] [µM]
N#Cc1ccc(N2CCC(N3CCC(c4nc5ccccc5c(=O)[nH]4)C3)CC2)cc1 (single isomer, unassigned) [Compound 34b] | 1 to 10 | +++ (+++ indicate a value of at least 100) | < 0.01 | < 0.01 | – | – | – | – | –
CNC(=O)c1ccc(N2CCC(N3CC4(c5nc6c(c(=O)[nH]5)CCCC6)CC3C4)CC2)c(F)n1 [Compound 389] | – | +++ (+++ indicate a value of at least 100) | – | – | 0.1 to 1 | < 0.01 | < 0.01 | – | –
CNC(=O)c1ccc(N2CCC(N3CCC(c4cc5c(C(F)(F)F)cccc5c(=O)[nH]4)C3)CC2)cn1 (single isomer, unassigned) [Compound 167a] | > 10 | ++ (++ indicates a value of 50 to less than 100) | 0.01 to 0.1 | 0.01 to 0.1 | – | – | – | – | –
O=C(NC1CC1)c1ccc(N2CCC(N3CC4(c5nc6cccc(F)c6c(=O)[nH]5)CC3C4)CC2)c(F)n1 [Compound 376] | – | +++ (+++ indicate a value of at least 100) | – | – | 0.1 to 1 | < 0.01 | < 0.01 | – | –
Cc1n[nH]c(-c2ccc(N3CCC(N4CCC(c5nc6ccccc6c(=O)[nH]5)C4)CC3)cn2)n1 (racemic) [Compound 275rac] | – | + (+ indicates a value of 10 to less than 50) | – | – | 0.1 to 1 | – | < 0.01 | < 0.01 | –
CCc1ccc(C2CCN(C3CCN(c4ccc(C(=O)NC)nc4C(F)F)CC3)C2)[nH]c1=O (single isomer, unassigned) [Compound 164a] | 1 to 10 | +++ (+++ indicate a value of at least 100) | < 0.01 | < 0.01 | – | – | – | – | –
CCc1ccc(C2CCN(CC3CCN(c4ccc(C(=O)NC)nc4)CC3)CC2)[nH]c1=O [Compound 47] | > 10 | − (− indicates a value of less than 10) | – | 0.1 to 1 | – | – | – | – | 0.1 to 1
CNC(=O)c1ccc(N2CCC(N3CCC(c4cc5cccc(Cl)c5c(=O)[nH]4)C3)CC2)cn1 (single isomer, unassigned) [Compound 128b] | 0.01 to 0.1 | ++ (++ indicates a value of 50 to less than 100) | < 0.01 | < 0.01 | – | – | – | – | –
CNC(=O)c1ccc(N2CCC(CN3CCC(c4nc5ccccc5c(=O)[nH]4)CC3)C2)cn1 (single isomer, unassigned) [Compound 50b] | > 10 | +++ (+++ indicate a value of at least 100) | 0.01 to 0.1 | 0.01 to 0.1 | – | – | – | – | –
CNC(=O)c1ccc(N2CCC(N3CCC(c4nc5c(C(F)(F)F)cn(C)c5c(=O)[nH]4)C3)CC2)cn1 (racemic) [Compound 288rac] | – | +++ (+++ indicate a value of at least 100) | – | – | 1 to 10 | – | 0.01 to 0.1 | 0.01 to 0.1 | –
CNC(=O)c1cc(C)c(N2CCC(N3CCC(c4cc5ccc(F)cc5c(=O)[nH]4)C3)CC2)cn1 (single isomer, unassigned) [Compound 202b] | 0.01 to 0.1 | + (+ indicates a value of 10 to less than 50) | < 0.01 | < 0.01 | – | – | – | – | –
CNC(=O)c1cc(C)c(N2CCC(N3CCC(c4cc5ccccc5c(=O)[nH]4)C3)CC2)c(C)n1 (single isomer, unassigned) [Compound 205a] | > 10 | + (+ indicates a value of 10 to less than 50) | 0.1 to 1 | 0.1 to 1 | – | – | – | – | –
CNC(=O)c1ccc(N2CCC(N3CCCC(Cc4nc5ccccc5c(=O)[nH]4)C3)CC2)cn1 (single isomer, unassigned) [Compound 57a] | > 10 | +++ (+++ indicate a value of at least 100) | 0.01 to 0.1 | < 0.01 | – | – | – | – | –
CS(=O)(=O)Nc1ccc(N2CCC(N3CCC(c4cc5ccccc5c(=O)[nH]4)C3)CC2)cc1 (single isomer, unassigned) [Compound 251a] | – | − (− indicates a value of less than 10) | – | – | 1 to 10 | – | 0.1 to 1 | 0.1 to 1 | –
CS(=O)(=O)Nc1ccc(N2CCC(N3CCC(c4nc5ccccc5c(=O)[nH]4)C3)CC2)cn1 (single isomer, unassigned) [Compound 291b] | – | − (− indicates a value of less than 10) | – | – | 1 to 10 | – | 0.1 to 1 | 0.1 to 1 | –
CC(=O)Nc1ccc(N2CCC(N3CCC(c4cc5ccccc5c(=O)[nH]4)C3)CC2)cc1 (single isomer, unassigned) [Compound 289b] | – | + (+ indicates a value of 10 to less than 50) | – | – | 0.1 to 1 | – | < 0.01 | 0.01 to 0.1 | –
CNC(=O)c1ccc(N2CCC(N3CCCC(c4cc5ccccc5c(=O)[nH]4)C3)CC2)cn1 (single isomer, unassigned) [Compound 100b] | 1 to 10 | +++ (+++ indicate a value of at least 100) | 0.01 to 0.1 | 0.01 to 0.1 | – | – | – | – | –
CCc1cnc(C2CCN(C3CCN(c4ccc(C(=O)NC)nc4)CC3)C2)[nH]c1=O (racemic) [Compound 42rac] | 1 to 10 | +++ (+++ indicate a value of at least 100) | – | < 0.01 | – | – | – | – | < 0.01
CNC(=O)c1ccc(N2CCC(N3CCC(c4cc5ccc(F)cc5c(=O)[nH]4)C3)CC2)c(C)n1 (single isomer, unassigned) [Compound 196b] | 1 to 10 | +++ (+++ indicate a value of at least 100) | < 0.01 | < 0.01 | – | – | – | – | –
N#Cc1ccc(N2CCC(N3CCCC(c4nc5ccccc5c(=O)[nH]4)C3)CC2)nc1 (single isomer, unassigned) [Compound 74b] | 1 to 10 | ++ (++ indicates a value of 50 to less than 100) | 0.01 to 0.1 | 0.01 to 0.1 | – | – | – | – | –
CNC(=O)c1ccc(N2CCC(N3CCCC(c4nc5c(Cl)cccc5c(=O)[nH]4)C3)CC2)cn1 (single isomer, unassigned) [Compound 44b] | 1 to 10 | + (+ indicates a value of 10 to less than 50) | 0.01 to 0.1 | 0.01 to 0.1 | – | – | – | – | –
CNC(=O)c1ccc(N2CCC(N3CC4(c5nc6ncc(F)cc6c(=O)[nH]5)CC3C4)CC2)cn1 [Compound 368] | – | +++ (+++ indicate a value of at least 100) | – | – | > 10 | < 0.01 | < 0.01 | – | –
CNC(=O)c1ccc(N2CCC(N3CCCC(c4ccc(C5CC5)c(=O)[nH]4)C3)CC2)cn1 (single isomer, unassigned) [Compound 126b] | > 10 | + (+ indicates a value of 10 to less than 50) | 0.1 to 1 | 0.1 to 1 | – | – | – | – | –
CCc1nc(C(=O)NC)ccc1N1CCC(N2CCCC(c3nc4ccccc4c(=O)[nH]3)C2)CC1 (single isomer, unassigned) [Compound 112a] | 1 to 10 | − (− indicates a value of less than 10) | 0.1 to 1 | 0.1 to 1 | – | – | – | – | –
CNC(=O)c1ccc(N2CCC(N3CCC(c4ccc(C(C)C)c(=O)[nH]4)C3)CC2)cn1 (racemic) [Compound 142rac] | 1 to 10 | +++ (+++ indicate a value of at least 100) | < 0.01 | < 0.01 | – | – | – | – | –
CNC(=O)c1ccc(N2CCC(N3CC4(c5nc6ncccc6c(=O)[nH]5)CC3C4)CC2)cn1 [Compound 311] | – | +++ (+++ indicate a value of at least 100) | – | – | 1 to 10 | < 0.01 | < 0.01 | – | –
CNC(=O)c1ccc(N2CCC(N3CCCC(c4nc5cc(F)ccc5c(=O)[nH]4)C3)CC2)cn1 (single isomer, unassigned) [Compound 108a] | > 10 | − (− indicates a value of less than 10) | 0.1 to 1 | 0.1 to 1 | – | – | – | – | –
CNC(=O)c1ccc(N2CCC(N3CC4CC(c5nc6ccccc6c(=O)[nH]5)(C4)C3)CC2)cn1 [Compound 168] | > 10 | +++ (+++ indicate a value of at least 100) | – | < 0.01 | – | – | – | – | < 0.01

Source: US20250152585A1, “PHARMACEUTICAL COMPOUND” (Duke Street Bio Limited, priority 2022, published 2025)
